According to article PMC10059066, “Probing Serum Albumins and Cyclodextrins as Binders of the Mycotoxin Metabolites Alternariol-3-Glucoside, Alternariol-9-Monomethylether-3-Glucoside, and Zearalenone-14-Glucuronide” (Metabolites, 2023):
Several values for one entry are separate records, joined by “and”; a condition that tells them apart may be missing. Equal entries are not always repeated.

Legend:
[1] = system: serum albumins (HSA, BSA, PSA, RSA); assay: Fluorescence quenching, summary over the tested albumins; type: binding, human, bovine, porcine, rat; conditions: PBS pH 7.4, approximate over the albumins tested
Experimental: (§1) Fluorescence emission spectra were collected at 25 °C using a Hitachi F-4500 fluorescence spectrophotometer (Tokyo, Japan). The quenching effects of AG, AMG, and Z14Glr (each 0–5 μM) on the emission signals of albumins (2 μM each) were examined at 340 nm in phosphate-buffered saline (PBS, pH 7.4). UV–vis measurements were performed at 25 °C in PBS, employing a Jasco V730 UV–vis spectrophotometer (Tokyo, Japan). Thereafter, we corrected the inner-filter effects of the mycotoxins, as previously reported. Stern–Volmer quenching constants (KSV; L/mol) were calculated with the graphical application of the Stern–Volmer equation [11, 29]:(1) I0/I=1+KSV×Q where I0 and I are the emission intensities of the protein without and with the quencher, respectively, while [Q] is the concentration (mol/L) of the quencher (mycotoxin). The binding constants (K; L/mol) of mycotoxin–albumin complexes were determined with nonlinear fitting, using the HyperQuad2006 software (version 3.1; Protonic Software GmbH, Hanau, Germany), as described previously.
(§2) The KSV and K values of mycotoxin–albumin complexes were determined using the Stern–Volmer equation (Equation (1)) and the HyperQuad2006 software (see data in Table 1 and Table 2, respectively). […] The logKSV and logK values of the mycotoxin–albumin complexes were in good agreement (Table 1 and Table 2).

[2] = target: T1, human serum albumin (HSA) (Homo sapiens, UniProt P02768); assay: Ultracentrifugation study of mycotoxin-HSA binding
T1 construct: purchased Merck (Darmstadt, Germany)
T1 sequence (P02768 25-609): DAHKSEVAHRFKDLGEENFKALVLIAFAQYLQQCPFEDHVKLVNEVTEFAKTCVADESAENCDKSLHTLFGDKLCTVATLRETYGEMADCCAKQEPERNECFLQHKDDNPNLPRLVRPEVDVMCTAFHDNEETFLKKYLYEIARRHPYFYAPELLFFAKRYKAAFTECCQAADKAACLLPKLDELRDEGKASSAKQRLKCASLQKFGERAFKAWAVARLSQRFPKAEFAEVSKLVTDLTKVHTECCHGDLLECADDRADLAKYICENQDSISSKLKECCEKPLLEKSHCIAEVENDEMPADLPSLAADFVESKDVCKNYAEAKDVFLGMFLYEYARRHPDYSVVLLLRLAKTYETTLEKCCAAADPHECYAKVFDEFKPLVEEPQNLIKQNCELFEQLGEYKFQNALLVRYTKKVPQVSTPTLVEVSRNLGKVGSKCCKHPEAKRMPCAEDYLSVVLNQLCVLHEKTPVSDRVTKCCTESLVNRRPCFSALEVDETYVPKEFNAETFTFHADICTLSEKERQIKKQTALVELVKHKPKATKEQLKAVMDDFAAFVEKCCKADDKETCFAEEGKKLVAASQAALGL
Experimental: To confirm the data calculated based on fluorescence quenching studies, ultracentrifugation experiments were also performed. With the proper conditions of ultracentrifugation, albumin (with the bound ligands) can be sedimented. The samples (final volume: 500 μL) contained AG, AMG, or Z14Glr (5 μM each) with HSA (60 or 180 μM) dissolved in PBS. Centrifugation (16 h, 170,000× g, 20 °C) was performed using 11 × 34 mm PC tubes (Beckman Coulter, Brea, CA, US) and a Beckman Coulter Optima MAX-XP tabletop ultracentrifuge (fixed-angle rotor). The unbound fractions of mycotoxins were determined in the protein-free supernatant by HPLC-FLD (see details in Section 2.5), as previously reported. (3) K=[LA]/L×[A] where [L], [A], and [LA] are the concentrations (mol/L) of the ligand (unbound), albumin (unbound), and the ligand–albumin complex, respectively.
Furthermore, to test the impact of environmental pH on the stability of mycotoxin–albumin complexes, the abovementioned experiments were also performed in 0.05 M sodium acetate (pH 5.0) and 0.05 M sodium borate (pH 8.5) buffers.
To confirm the binding constants determined in the quenching experiments, and to get insight into the interaction of Z14Glr with HSA, ultracentrifugation studies were also performed. In these investigations, albumins (with the ligands bound) were sedimented, and then the concentrations of the unbound mycotoxins were quantified from the supernatants.

[3] = target: T2, porcine serum albumin (PSA) (Sus scrofa, UniProt P08835); assay: Fluorescence quenching of porcine serum albumin by mycotoxins; type: binding; conditions: for PSA logKSV ± SEM (Stern–Volmer quenching constant): PBS pH 7.4, 25 °C, albumin 2 μM, mycotoxin 0–5 μM, n = 3; for Kd: fluorescence quenching, HyperQuad fitting, PBS pH 7.4, n = 3, read-out: PSA logK ± SEM (binding constant) (converted)
T2 construct: purchased Merck (Darmstadt, Germany)
T2 sequence (P08835 25-607): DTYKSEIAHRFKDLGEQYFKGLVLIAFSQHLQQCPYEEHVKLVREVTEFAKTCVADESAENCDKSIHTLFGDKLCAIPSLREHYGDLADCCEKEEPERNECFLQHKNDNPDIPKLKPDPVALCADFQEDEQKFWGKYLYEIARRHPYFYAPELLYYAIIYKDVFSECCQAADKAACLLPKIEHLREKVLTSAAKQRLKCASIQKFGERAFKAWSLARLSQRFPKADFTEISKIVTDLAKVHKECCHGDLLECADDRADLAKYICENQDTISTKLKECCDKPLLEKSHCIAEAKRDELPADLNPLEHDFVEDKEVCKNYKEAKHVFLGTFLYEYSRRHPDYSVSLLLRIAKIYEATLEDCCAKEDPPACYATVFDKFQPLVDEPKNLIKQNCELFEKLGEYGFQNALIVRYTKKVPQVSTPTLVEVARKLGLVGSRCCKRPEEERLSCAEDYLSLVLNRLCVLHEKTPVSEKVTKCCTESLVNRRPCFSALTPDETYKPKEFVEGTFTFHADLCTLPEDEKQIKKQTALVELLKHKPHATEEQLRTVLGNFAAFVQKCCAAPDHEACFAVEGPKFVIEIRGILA
Experimental: as §1
(§3) The interaction of a ligand molecule with albumin usually induces a decrease in the emission signal of the protein [33]; therefore, fluorescence quenching studies were performed. In PBS (pH 7.4), increasing amounts of AG, AMG, and Z14Glr were added to standard concentrations of human (HSA), bovine (BSA), porcine (PSA), or rat (RSA) serum albumins, after which the emission spectra were recorded.
as §2

[4] = target: T3, bovine serum albumin (BSA) (Bos taurus, UniProt P02769); assay: Fluorescence quenching of bovine serum albumin by mycotoxins; type: binding; conditions: for BSA logKSV ± SEM (Stern–Volmer quenching constant): PBS pH 7.4, 25 °C, albumin 2 μM, mycotoxin 0–5 μM, n = 3; for Kd: fluorescence quenching, HyperQuad fitting, PBS pH 7.4, n = 3, read-out: BSA logK ± SEM (binding constant) (converted)
T3 construct: purchased Merck (Darmstadt, Germany)
T3 sequence (P02769 25-607): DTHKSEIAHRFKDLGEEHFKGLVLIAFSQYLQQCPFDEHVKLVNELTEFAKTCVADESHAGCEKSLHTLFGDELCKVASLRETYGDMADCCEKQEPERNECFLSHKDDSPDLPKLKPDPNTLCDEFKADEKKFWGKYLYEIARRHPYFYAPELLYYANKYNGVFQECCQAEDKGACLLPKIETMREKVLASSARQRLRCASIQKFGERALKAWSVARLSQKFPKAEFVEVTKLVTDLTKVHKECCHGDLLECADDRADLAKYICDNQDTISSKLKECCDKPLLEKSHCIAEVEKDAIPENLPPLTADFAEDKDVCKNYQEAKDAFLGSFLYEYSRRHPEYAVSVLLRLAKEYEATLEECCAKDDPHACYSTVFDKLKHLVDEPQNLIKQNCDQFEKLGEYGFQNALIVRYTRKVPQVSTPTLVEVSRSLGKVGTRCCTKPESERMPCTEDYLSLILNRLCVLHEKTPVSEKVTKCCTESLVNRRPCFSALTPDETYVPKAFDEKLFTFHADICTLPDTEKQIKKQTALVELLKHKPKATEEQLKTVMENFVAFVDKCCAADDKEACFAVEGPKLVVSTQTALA
Experimental: as §1, §3, §2

[5] = Extraction of mycotoxins from aqueous solutions with β-cyclodextrin bead polymer; conditions: for decrease in mycotoxin concentration (extraction) by BBP: BBP 10 mg/mL, mycotoxin 5 μM, sodium acetate buffer pH 5.0, 40 min, 25 °C; for removal of mycotoxin by BBP at pH 10.0 compared with pH 5.0: sodium borate pH 10.0 vs sodium acetate pH 5.0, mycotoxin 5 μM
Experimental: (§4) The extraction of mycotoxins by insoluble (but water-swellable) CD bead polymers was tested in 0.05 M sodium acetate (pH 5.0) and 0.05 M sodium borate (pH 10.0) buffers. AG, AMG, alternariol, Z14Glr, and zearalenone solutions (5 μM each) were incubated with increasing amounts (0–10 mg/mL) of BBP or GBP in a thermomixer for 40 min at 1000 rpm and 25 °C. After pulse centrifugation (5000× g, 3 s), the mycotoxin contents of the supernatants were analyzed by HPLC-FLD (see Section 2.5).
(§5) The quantitative analyses of the examined mycotoxins were performed with a Jasco HPLC system (Tokyo, Japan) equipped with a binary pump (PU-4180), an autosampler (AS 4050), and a fluorescence detector (FP-920). Chromatograms were evaluated using the ChromNAV2 software (Jasco). Alternariol and zearalenone were analyzed as described previously. During the validation of our new HPLC-FLD methods, the linearity (LIN), limit of detection (LOD), limit of quantification (LOQ), and intraday repeatability (IDR) were determined as described previously.
(§6) AG and AMG were quantified using the following method: Isocratic elution of the samples (20 μL) was performed at room temperature with a 1 mL/min flow rate, employing phosphoric acid (1 mM) and acetonitrile (65:35 v/v%) as the mobile phase, where a Security Guard (C18, 4.0 × 3.0 mm; Phenomenex, Torrance, CA, US) precolumn was linked to a Kinetex EVO C18 (250 × 4.6 mm, 5 μm; Phenomenex) analytical column. Chromatograms were recorded, applying 335 nm and 455 nm excitation and emission wavelengths, respectively. The method validation parameters were as follows: AG (LIN: 0.2–5.0 μM, R^2 = 0.999; LOD = 0.05 μM; LOQ = 0.18 μM; IDR = 1.3%, n = 7); AMG (LIN: 0.2–5.0 μM, R^2 = 0.997; LOD = 0.15 μM; LOQ = 0.50 μM; IDR = 2.3%, n = 7).
(§7) Z14Glr was quantified using the following method: Isocratic elution of the samples (20 μL) was performed at room temperature with a 1 mL/min flow rate, employing 1% acetic acid solution and acetonitrile (65:35 v/v%) as the mobile phase, where a Security Guard (C8, 4.0 × 3.0 mm; Phenomenex) precolumn was linked to a Mediterranea See8 (C8, 150 × 4.6 mm, 5 μm; Teknokroma, Barcelona, Spain) analytical column. Chromatograms were recorded, applying 315 nm and 465 nm excitation and emission wavelengths, respectively. The method validation parameters for the HPLC analysis of Z14Glr were also determined (LIN: 0.2–5.0 μM, R^2 = 0.999; LOD = 0.15 μM; LOQ = 0.50 μM; IDR = 2.0%, n = 7).

[6] = Fluorescence spectroscopic study of mycotoxin-SGD complex formation; type: binding; conditions: for SGD logK ± SEM (binding constant): Benesi–Hildebrand, 0.05 M sodium acetate pH 5.0, mycotoxin 1 μM, n = 3; for SGD-induced increase in the emission signal of the mycotoxin: SGD 0–5 mM, mycotoxin 1 μM, sodium acetate pH 5.0
Experimental: (§8) The impacts of SBECD (0–10 mM) and SGD (0–5 mM) on the emission signals of mycotoxins (1 μM each) were tested in sodium acetate buffer (0.05 M, pH 5.0). Mycotoxin–CD interactions were evaluated using the Benesi–Hildebrand equation [11, 31], assuming 1:1 stoichiometry of complex formation:(2) F0/F−F0=1/A+1/A×K×[CD] where K (L/mol) is the binding constant, F0 is the emission signal of the mycotoxin without the host molecules, F is the emission signal of the mycotoxin with CDs, A is a constant, and [CD] is the molar concentration (mol/L) of the host molecules.
(§9) Therefore, CD-induced elevation in the fluorescence emission intensities of mycotoxins was examined.
(§10) Based on the emission signals at 455 nm, the binding constants of ligand–CD complexes were calculated using the Benesi–Hildebrand equation (Equation (2)). Background corrections were performed in each experiment. […] Glucose and glucuronic acid are bulky, hydrophilic molecules; therefore, it is reasonable to hypothesize that these substituents make the inclusion of AG, AMG, and Z14Glr by the apolar CD cavity difficult.

[7] = target: T1, human serum albumin (HSA); assay: Fluorescence quenching of human serum albumin by mycotoxins; type: binding; conditions: for HSA logKSV ± SEM (Stern–Volmer quenching constant): PBS pH 7.4, 25 °C, albumin 2 μM, mycotoxin 0–5 μM, n = 3; for Kd: fluorescence quenching, HyperQuad fitting, PBS pH 7.4, n = 3, read-out: HSA logK ± SEM (binding constant) (converted)
Experimental: as §1, §3, §2

[8] = Extraction of mycotoxins from aqueous solutions with γ-cyclodextrin bead polymer; conditions: GBP 0–10 mg/mL, mycotoxin 5 μM, sodium acetate buffer pH 5.0
Experimental: as §4, §5
as §6, with “The method validation parameters were as follows: AG (LIN: 0.2–5.0 μM, R^2 = 0.999; LOD = 0.05 μM; LOQ = 0.18 μM; IDR = 1.3%, n = 7); AMG (LIN: 0.2–5.0 μM, R^2 = 0.997; LOD = 0.15 μM; LOQ = 0.50 μM; IDR = 2.3%, n = 7).” left out
as §7, with “The method validation parameters for the HPLC analysis of Z14Glr were also determined (LIN: 0.2–5.0 μM, R^2 = 0.999; LOD = 0.15 μM; LOQ = 0.50 μM; IDR = 2.0%, n = 7).” left out

[9] = Fluorescence spectroscopic study of mycotoxin-SBECD complex formation; type: binding; conditions: for SBECD logK ± SEM (binding constant): Benesi–Hildebrand, 0.05 M sodium acetate pH 5.0, mycotoxin 1 μM, n = 3; for SBECD-induced increase in the emission signal of the mycotoxin: SBECD 0–10 mM, mycotoxin 1 μM, sodium acetate pH 5.0
Experimental: as §8, §9, §10

rat serum albumin (RSA) = target: T4, rat serum albumin (RSA) (Rattus norvegicus, UniProt P02770); assay: Fluorescence quenching of rat serum albumin by mycotoxins; type: binding; conditions: for RSA logKSV ± SEM (Stern–Volmer quenching constant): PBS pH 7.4, 25 °C, albumin 2 μM, mycotoxin 0–5 μM, n = 3; for Kd: fluorescence quenching, HyperQuad fitting, PBS pH 7.4, n = 3, read-out: RSA logK ± SEM (binding constant) (converted)
T4 construct: purchased Merck (Darmstadt, Germany)
T4 sequence (P02770 25-608): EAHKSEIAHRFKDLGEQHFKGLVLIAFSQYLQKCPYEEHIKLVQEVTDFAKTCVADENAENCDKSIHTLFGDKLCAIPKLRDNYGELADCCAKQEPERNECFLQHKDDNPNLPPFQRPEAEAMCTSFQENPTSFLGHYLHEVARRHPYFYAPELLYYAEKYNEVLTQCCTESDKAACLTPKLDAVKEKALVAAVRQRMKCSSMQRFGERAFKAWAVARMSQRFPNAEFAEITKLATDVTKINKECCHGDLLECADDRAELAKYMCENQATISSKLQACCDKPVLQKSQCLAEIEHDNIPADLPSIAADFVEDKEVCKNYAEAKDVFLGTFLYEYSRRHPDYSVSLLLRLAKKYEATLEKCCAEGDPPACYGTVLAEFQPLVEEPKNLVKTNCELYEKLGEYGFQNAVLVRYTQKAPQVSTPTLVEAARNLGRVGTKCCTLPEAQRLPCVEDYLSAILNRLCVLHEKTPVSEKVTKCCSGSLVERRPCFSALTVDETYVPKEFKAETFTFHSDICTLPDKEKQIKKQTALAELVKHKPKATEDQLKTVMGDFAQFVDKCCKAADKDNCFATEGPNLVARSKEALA
Experimental: as §1, §3, §2

[10] = 0.05 M sodium acetate pH 5.0, mycotoxin 5 μM, n = 3, read-out: HSA pH 5.0 logK ± SEM (binding constant) (converted)
[11] = 0.05 M sodium borate pH 8.5, mycotoxin 5 μM, n = 3, read-out: HSA pH 8.5 logK ± SEM (binding constant) (converted)
[12] = PBS pH 7.4, mycotoxin 5 μM, n = 3, read-out: HSA pH 7.4 logK ± SEM (binding constant) (converted)

## Cc1cc(OC2O[C@H](CO)[C@@H](O)[C@H](O)[C@H]2O)cc2oc(=O)c3c(O)cc(O)cc3c12 (stereo partly drawn) [AG, alternariol-3-glucoside]
[1]
  binding constant K of mycotoxin–albumin complexes: ≈ 3 × 10^4 L/mol
[2]; [10]
  Kd: 33.1 µM
[2]; [11]
  Kd: 39.8 µM
[2]; [12]
  Kd: 57.5 µM
[3]
  PSA logKSV ± SEM (Stern–Volmer quenching constant): 4.38 ± 0.03 L/mol
  Kd: 37.2 µM
[4]
  BSA logKSV ± SEM (Stern–Volmer quenching constant): 4.44 ± 0.04 L/mol
  Kd: 34.7 µM
[5]
  decrease in mycotoxin concentration (extraction) by BBP: approximately 85%
  removal of mycotoxin by BBP at pH 10.0 compared with pH 5.0: significantly lower than at acidic pH
[6]
  SGD logK ± SEM (binding constant): 3.19 ± 0.08 L/mol
  SGD-induced increase in the emission signal of the mycotoxin: approximately sevenfold increase
[7]
  HSA logKSV ± SEM (Stern–Volmer quenching constant): 4.48 ± 0.08 L/mol
  Kd: 30.2 µM
[8]
  removal of mycotoxin by GBP: strongly reduced
[9]
  SBECD logK ± SEM (binding constant): 2.92 ± 0.05 L/mol
  SBECD-induced increase in the emission signal of the mycotoxin: threefold elevation
Rat serum albumin (RSA)
  RSA logKSV ± SEM (Stern–Volmer quenching constant): 4.49 ± 0.03 L/mol
  Kd: 29.5 µM

## COc1cc(O)c2c(=O)oc3cc(OC4O[C@H](CO)[C@@H](O)[C@H](O)[C@H]4O)cc(C)c3c2c1 (stereo partly drawn) [AMG, alternariol-9-monomethylether-3-glucoside]
[1]
  binding constant K of mycotoxin–albumin complexes: ≈ 3 × 10^4 L/mol
[2]
  affinity toward HSA at pH 8.5 relative to pH 5.0: approximately 17 fold
[2]; [10]
  Kd: 151 µM
[2]; [11]
  Kd: 8.91 µM
[2]; [12]
  Kd: 79.4 µM and 77.6 µM
[3]
  PSA logKSV ± SEM (Stern–Volmer quenching constant): 4.27 ± 0.03 L/mol
  Kd: 51.3 µM
[4]
  BSA logKSV ± SEM (Stern–Volmer quenching constant): 4.57 ± 0.02 L/mol
  Kd: 25.7 µM
[5]
  decrease in mycotoxin concentration (extraction) by BBP: ~75%
  removal of mycotoxin by BBP at pH 10.0 compared with pH 5.0: did not show relevant pH dependence
[6]
  SGD logK ± SEM (binding constant): 3.45 ± 0.04 L/mol
  SGD-induced increase in the emission signal of the mycotoxin: approximately sevenfold increase
[7]
  HSA logKSV ± SEM (Stern–Volmer quenching constant): 4.38 ± 0.05 L/mol
  Kd: 39.8 µM
[8]
  removal of mycotoxin by GBP: strongly reduced
[9]
  SBECD logK ± SEM (binding constant): 2.79 ± 0.08 L/mol
  SBECD-induced increase in the emission signal of the mycotoxin: threefold elevation
Rat serum albumin (RSA)
  RSA logKSV ± SEM (Stern–Volmer quenching constant): 4.62 ± 0.02 L/mol
  Kd: 22.4 µM
